# From article PMC11077815, “Synthesis and antitumor activity of dolutegravir derivatives bearing 1,2,3-triazole moieties” (BMC Chemistry, 2024)
# Key:
# A549 = assay: CCK8 cell viability assay, A549; assay type: cell-based, Human; conditions: for IC50: A549, 48 h, CCK8, mean ± SE
# Description: (§1) At first, CCK8 assay was carried out to evaluate the anti-proliferative activity of dolutegravir-1,2,3-triazole derivatives against different cancer cell lines. The results of cell viability of three lung cancer cell lines A549, PC-9 and H460 in the presence of compounds 9 and 10 are summarized in Table 2. Cells were treated with different compounds at the concentration of 20 µM for 48 h. […] Human lung cancer cell lines A549, PC-9 and H460 were all obtained from ATCC. Cells were cultured in DMEM or RPMI 1640 medium containing 10% FBS and 1% penicillin/streptomycin at 37 °C with a 5% CO2-humidified atmosphere. CCK8 assay was used to measure cell viability. Cells with a density of 1 × 10^4 cells/well were seeded on the 96-well plates. After adhesion, cells were treated with different diluted compounds or vehicle control DMSO and continue cultured for 48 h. Then, CCK8 reagent was added for one hour incubation at 37 °C with 5% of CO2. Absorbance was measured using a microplate spectrophotometer (Thermo) at 450 nm. The ratio of cell viability of control was taken as 100%. […] Then IC50 of the compounds were investigated using the prism statistical software.
# PC-9 = assay: CCK8 cell viability assay, PC-9; assay type: cell-based, Human; conditions: for IC50: PC9, 48 h, CCK8, mean ± SE
# Description: as §1
# H460 = assay: CCK8 cell viability assay, H460; assay type: cell-based, Human; conditions: for IC50: H460, 48 h, CCK8, mean ± SE
# Description: as §1
# [1] = set-up: method as in PMID 35111871; conditions: preclinical study, dose 27 times greater than the clinical dose; cited from earlier work
# [2] = tested on: HRM (Human Renal Mesangial) cell line; assay: CCK8 cell viability assay, HRM normal cells (toxicity control); assay type: cell-based; conditions: HRM normal human cells, 48 h, CCK8, mean ± SE
# Description: Based on these preliminary results, compounds 9c, 9e, 9f, 9i, 9k, 9 L, 9p, 9q, 9t, 9u, 9v, 9w, 10c, 10e which were effective to most of the cell lines were chosen for the measurement of the half-maximal inhibitory concentration (IC50). […] HRM (Human Renal Mesangial) cell line was used as a control to study the toxicity of these compounds against normal human cells.
# CCK8 assay was used to measure cell viability. Cells with a density of 1 × 10^4 cells/well were seeded on the 96-well plates. After adhesion, cells were treated with different diluted compounds or vehicle control DMSO and continue cultured for 48 h. Then, CCK8 reagent was added for one hour incubation at 37 °C with 5% of CO2. Absorbance was measured using a microplate spectrophotometer (Thermo) at 450 nm. The ratio of cell viability of control was taken as 100%. […] Then IC50 of the compounds were investigated using the prism statistical software.
# [3] = A549, 20 µM, 48 h, CCK8, control = 100%
# [4] = PC9, 20 µM, 48 h, CCK8, control = 100%
# [5] = H460, 20 µM, 48 h, CCK8, control = 100%
Compound,"viability at 20 µM (A549; Homo sapiens, A549, 20 µM, 48 h, CCK8, control = 100%) [%]","viability at 20 µM (PC-9; Homo sapiens, PC-9, PC9, 20 µM, 48 h, CCK8, control = 100%) [%]","viability at 20 µM (H460; Homo sapiens, NCI-H460, H460, 20 µM, 48 h, CCK8, control = 100%) [%]",fertility and teratogenic toxicity [1],Cell viability (100%) (A549; [3]) [%],IC50 (A549) [µM],Cell viability (100%) (PC-9; [4]) [%],IC50 (PC-9) [µM],Cell viability (100%) (H460; [5]) [%],IC50 (H460) [µM],IC50 [2] [µM]
"C[C@@H]1CCO[C@H]2Cn3cc(C(=O)NCc4ccc(F)cc4F)c(=O)c(O)c3C(=O)N12 [DTG, Dolutegravir]",109,91.7,27.2,no obvious fertility toxicity or teratogenic toxicity,,,,,,,
CCc1ccccc1-n1cc(-c2cccc(NC(=O)c3cn4c(c(OC)c3=O)C(=O)N3[C@H](C)CCO[C@H]3C4)c2)nn1 [Compound 9k],,,,,83.48,20.7 ± 0.23,23.40,9.87 ± 0.19,18.72,12.9 ± 0.8,> 50
COc1c2n(cc(C(=O)Nc3cccc(-c4cn(-c5ccccc5OC(F)(F)F)nn4)c3)c1=O)C[C@@H]1OCC[C@@H](C)N1C2=O [Compound 9i],,,,,17.41,11.1 ± 1.07,18.95,4.53 ± 0.31,8.52,8.24 ± 2.06,> 50
COc1c2n(cc(C(=O)Nc3cccc(-c4cn(-c5ccccc5Br)nn4)c3)c1=O)C[C@@H]1OCC[C@@H](C)N1C2=O [Compound 9u],,,,,64.09,> 50,43.88,7.77 ± 0.37,31.00,37.3 ± 2.25,> 50
COc1c2n(cc(C(=O)Nc3cccc(-c4cn(Cc5ccccc5Br)nn4)c3)c1=O)C[C@@H]1OCC[C@@H](C)N1C2=O [Compound 10c],,,,,68.05,> 50,50.54,12.1 ± 0.46,41.79,15.4 ± 1.38,> 50
COc1cccc(-n2cc(-c3cccc(NC(=O)c4cn5c(c(OC)c4=O)C(=O)N4[C@H](C)CCO[C@H]4C5)c3)nn2)c1 [Compound 9 L],,,,,73.36,44.3 ± 1.21,47.77,9.2 ± 0.65,20.32,25.5 ± 0.43,43.3 ± 3.27
COc1ccccc1-n1cc(-c2cccc(NC(=O)c3cn4c(c(OC)c3=O)C(=O)N3[C@H](C)CCO[C@H]3C4)c2)nn1 [Compound 9t],,,,,7.32,17.3 ± 0.73,4.56,6.75 ± 1.43,3.27,14.2 ± 0.16,> 50
